Reference: PubChem BioAssay AID624344 (Sanford-Burnham Center for Chemical Genomics, 2012)
pIC50: −log10 of the molar value. Calls of active or inactive are those of the source. The rule behind the calls is not given here.

Tests used:
[1] = inhibitors of PAF-induced NFkB signaling in CF airway cells, dose response, cell-based, uHTS hits, panel, cytotoxicity readout (AID 624344); conditions: CF bronchial epithelial cells, PAF-induced NFkB reporter inhibition; with PAF, mean of runs
Cytotoxicity = assay: as above; conditions: CF bronchial epithelial cells, mean of runs

| Structure (SMILES) | pIC50 [1] | pIC50 (Cytotoxicity) | IC50 (Cytotoxicity) | IC50 [1] |
| --- | --- | --- | --- | --- |
| O=C(Nc1nc2ccc(F)cc2s1)C1CCN(S(=O)(=O)c2cc([N+](=O)[O-])ccc2Cl)CC1 | 5.19 | 4.97 | – | – |
| COc1cccc(OC)c1C(=O)Nc1cc(C)nn1-c1nc2ccccc2[nH]1 | 5.42 | 5.00 | – | – |
| Cc1c(C=O)c(C=O)c(C)n1Cc1ccccc1 | 5.79 | 5.33 | – | – |
| CN(C)CCCN(C(=O)CCSc1ccccc1)c1nc2cc3c(cc2s1)OCO3 | 5.02 | 4.58 | – | – |
| C=CCn1c(Oc2ccccc2F)nc2c1c(=O)n(C)c(=O)n2C | 5.24 | – | > 79 µM (inactive) | – |
| N#CC1c2ccccc2-n2nncc2CN1Cc1cc(Cl)cc(Cl)c1 (centres undefined) | 5.67 | 5.80 | – | – |
| O=C(NCCc1ccc(F)cc1)c1coc(=O)c(Br)c1 | 5.36 | 4.67 | – | – |
| CN(C)CCCN(C(=O)CCS(=O)(=O)c1ccccc1)c1nc2cc3c(cc2s1)OCO3 | 5.77 | 5.13 | – | – |
| COc1ccc2nc(Nc3nc(CSc4nc5ccccc5[nH]4)cc(=O)[nH]3)nc(C)c2c1 | 5.22 | 4.36 | – | – |
| Cc1cccc(N2CCN(C(=O)c3[nH]c(C(F)(F)F)nc3-c3ccccc3)CC2)c1C | 4.75 | – | > 79 µM (inactive) | – |
| CCCCCCc1cc2cc(S(=O)(=O)c3ccc(F)cc3)c(=O)oc2cc1O | 5.35 | 5.32 | – | – |
| COc1ccc2ncn(-c3ccccc3)c2c1 | 5.26 | – | 60.6 µM (inactive) | – |
| O=C(COc1ccc(Cl)cc1)Nc1ncc([N+](=O)[O-])s1 | 5.99 | 5.48 | – | – |
| COc1ccc(-c2cn[nH]c2-c2ccc(OCc3ccc([N+](=O)[O-])cc3)cc2O)cc1 | 5.33 | 4.50 | – | – |
| O=S(=O)(c1ccc(Br)cc1)c1cnc2ccccc2n1 | 5.18 | 5.12 | – | – |
| NC(=O)c1nsc(C(=O)N(c2ccccc2)C(C(=O)NCc2ccc(F)cc2)c2ccc(O)cc2)c1N (centres undefined) | 5.32 | 5.06 | – | – |
| C=CCN1c2ccccc2Sc2cnccc21 | 5.59 | 4.39 | – | – |
| COc1ccc2cc(C(N)=O)c(=Nc3ccc(C)cc3)oc2c1 | 5.59 | 4.88 | – | – |
| COc1ccc2[nH]c3c(c2c1)CCN1C(=O)C(CC(=O)NCCC2=CCCCC2)C[C@H](C(=O)N2CCCCC2)[C@@]31CCc1ccccc1 (some centres undefined) | 5.09 | 4.36 | – | – |
| c1ccc2c(-c3cncc4ccccc34)cncc2c1 | 5.21 | – | 56.9 µM (inactive) | – |
| C=C1C(=O)C23C(O)C1CCC2C12COC3(O)C(O)C1C(C)(C)CCC2O (centres undefined) | 5.43 | 5.26 | – | – |

| Structure (SMILES) | pIC50 [1] | pIC50 (Cytotoxicity) | IC50 (Cytotoxicity) | IC50 [1] |
| --- | --- | --- | --- | --- |
| C[C@H]1C[C@@H](C)C(=O)[C@@H]([C@H](O)CC2CC(=O)NC(=O)C2)C1 | 6.43 | 5.05 | – | – |
| COc1ccc(CN(C(=O)CSc2nnc(-c3c[nH]c4ccccc34)o2)c2ccc(F)cc2)cc1OC | 5.40 | 5.13 | – | – |
| CC(=O)Oc1ccccc1C(=O)Oc1ccc(/C=N/n2cnnc2)cc1 | – | – | 59.5 µM (inactive) | inactive |
| COc1ccc(C(=O)Nc2cccc(NC(=O)c3ccc(OC)c(OC)c3)n2)cc1OC | 5.43 | 5.83 | – | – |
| COc1ccc2[nH]cc(C(=O)CCl)c2c1 | 5.92 | 5.71 | – | – |
| CC(=O)N1CC(=O)N=C1SCC(=O)Nc1nc(C)c(-c2ccccc2)s1 | 5.04 | – | 59.7 µM (inactive) | – |
| COc1ccc(OC)c(N(CCN2C(=O)c3ccccc3C2=O)C(=O)CCl)c1 | 5.39 | 5.36 | – | – |
| CC(=O)OC1CCC2(C)C(CCC3C4CC=C(C(C)=O)C4(C)OC(=O)CC32)C1 (centres undefined) | 6.01 | 5.29 | – | – |
| Cc1cccc(Nc2ncnc3ccc(Br)cc23)c1 | 5.41 | 4.88 | – | – |
| Nc1nc(/C=C/c2cccnc2)nc(-c2ccccc2O)n1 | 5.33 | 5.19 | – | – |
| CN(c1ncnc(N)c1[N+](=O)[O-])C1CCS(=O)(=O)C1 (centres undefined) | 5.55 | – | > 79 µM (inactive) | – |
| OCCNc1nc(Nc2ccc(Cl)c(Cl)c2)nc2ccccc12 | 5.67 | 5.39 | – | – |
| CCOc1ccc(NCc2cc3c(C(C)(C)C)nn(-c4ccccc4)c3[nH]c2=O)cc1 | 5.14 | 4.56 | – | – |
| Cc1cccc(NC(=O)Nc2ccc(C#N)cc2)n1 | 5.75 | 4.69 | – | – |
| Cc1ccsc1CN(C)c1ncnc2ccc(-c3ccoc3)cc12 | 6.42 | 4.33 | – | – |
| Cc1ccc(C(=O)c2cc([N+](=O)[O-])ccc2N2CCCCC2)c(C)c1 | 5.16 | – | > 79 µM (inactive) | – |
| CC(=O)Oc1c(Cl)cc(N(C(C)=O)S(=O)(=O)c2ccccc2)c2ccccc12 | 5.11 | 5.05 | – | – |
| Cc1cc(C)cc(NS(=O)(=O)c2ccc(-c3cnc(C4CC4)o3)cc2)c1 | 4.92 | 4.39 | – | – |
| C=C(c1ccc2nc(NC(=O)OC)[nH]c2c1)c1cccs1 | 5.30 | 4.59 | – | – |
| COc1ccc(Nc2nc(-c3ccccc3)nc3ccccc23)cc1S(=O)(=O)N1CCOCC1 | 5.32 | 5.14 | – | – |
| O=C(Oc1cc2oc(=O)cc(-c3ccccc3)c2cc1Cl)C1CCCCC1 | 5.65 | 4.51 | – | – |

| Structure (SMILES) | pIC50 [1] | pIC50 (Cytotoxicity) | IC50 (Cytotoxicity) | IC50 [1] |
| --- | --- | --- | --- | --- |
| COc1ccc(-n2nc(C(=O)NCC(=O)Nc3cc(OC)c(OC)c(OC)c3)c3ccccc3c2=O)cc1Cl | 5.79 | 4.64 | – | – |
| Cc1ccc(S(=O)(=O)Nc2cccc3ncccc23)s1 | 5.83 | – | > 79 µM (inactive) | – |
| CCOC(=O)Nc1nc(-c2ccccc2)c(C(=O)c2ccccc2)s1 | 4.84 | – | > 79 µM (inactive) | – |
| CC[C@@H](C(=O)[C@@H](C)[C@@H](O)[C@H](C)[C@@H]1O[C@@H]([C@@H](CC)C(=O)O)CC[C@@H]1C)[C@H]1O[C@]2(C=C[C@@H](O)[C@]3(CC[C@@](C)([C@H]4CC[C@](O)(CC)[C@H](C)O4)O3)O2)[C@H](C)C[C@@H]1C | 6.40 | 5.63 | – | – |
| Cc1ccc2c(c1)C(=O)C(=O)N2Cc1ccc(Br)cc1 | 4.72 | – | > 79 µM (inactive) | – |
| CC(=O)c1cccc(NC(=O)COC(=O)c2ccc(S(C)(=O)=O)c([N+](=O)[O-])c2)c1 | 5.28 | 4.90 | – | – |
| O=c1cc(-c2ccccc2Cl)oc2c([N+](=O)[O-])c(O)cc(O)c12 | 6.63 | 5.27 | – | – |
| CC1CCN(Cc2c(C(=O)N/N=C/c3ccc(C(C)(C)C)cc3)nnn2-c2nonc2N)CC1 | 4.84 | 4.53 | – | – |
| Cc1nc2sc(C(N)=O)c(N)c2c2c1CCCC2 | 5.93 | – | 64 µM (inactive) | – |
| N=C1N(c2ccccc2)C(=S)C(=Nc2ccccc2)N1c1ccccc1 | 4.83 | 4.48 | – | – |
| COc1cc2c(c(OC)c1OC)-c1ccc(O)cc1C(NC(C)=O)CC2 (centres undefined) | – | – | > 79 µM (inactive) | > 79 µM (inactive) |
| Cc1ccc(NC(=O)/C=C/c2ccco2)nc1 | 5.08 | – | > 79 µM (inactive) | – |
| O=C1/C(=C/c2cccnc2)CCc2c1[nH]c1ccccc21 | 5.26 | 4.60 | – | – |
| O=C1NC(=S)N/C1=C/c1cccnc1 | 5.22 | 4.38 | – | – |
| O=C(NC1CCCC(C(F)(F)F)C1)c1ccc([N+](=O)[O-])o1 (centres undefined) | 5.41 | 4.96 | – | – |
| Fc1cccc(Cl)c1/C=N/Nc1c(Cl)cncc1Cl | 5.23 | 4.58 | – | – |
| COc1ccc([C@]2(C(C)C)ON(c3ccccc3C(F)(F)F)C2=O)cc1 | 4.95 | – | > 79 µM (inactive) | – |
| COc1cccc(NC(=O)CN(C)CC(=O)Nc2ccc(C)c([N+](=O)[O-])c2)c1 | 5.21 | – | > 79 µM (inactive) | – |
| Cc1ccccc1S(=O)(=O)Cc1ccc(C(=O)N2CCN(c3cccc(C)c3C)CC2)o1 | 4.96 | 4.60 | – | – |
| Brc1ccc2ncnc(NCc3ccco3)c2c1 | 5.25 | – | 72.7 µM (inactive) | – |
| Cc1cccc(NC(=O)c2nc[nH]c2C(=O)NCCCNC(=O)c2[nH]cnc2C(=O)Nc2cccc(C)c2)c1 | 5.39 | 4.94 | – | – |

| Structure (SMILES) | pIC50 [1] | pIC50 (Cytotoxicity) | IC50 (Cytotoxicity) | IC50 [1] |
| --- | --- | --- | --- | --- |
| CCNC(=O)C1(C)CCCN(Cc2ccc(-c3ccccc3)o2)C1 (centres undefined) | 5.05 | – | > 79 µM (inactive) | – |
| O=C(Nc1ccc(Br)c2ccccc12)c1ccc2ccccc2c1O | 5.71 | 5.62 | – | – |
| O=[N+]([O-])c1ccc(NC(=S)NCCc2ccc(F)cc2)cc1 | 5.34 | 5.34 | – | – |
| CCOC(=O)N1CCC(NC(=O)c2ccc3c(c2)N=C(C)c2c(C)ccc(C)c2S3)CC1 | 4.96 | 4.38 | – | – |
| COc1cc(C(=O)Nc2nnc(-c3sccc3C)s2)cc(OC)c1OC | – | 5.36 | – | inactive |
| COc1ccc2cc3c(N)nn(C(=O)c4ccccc4[N+](=O)[O-])c3nc2c1 | 6.27 | 4.40 | – | – |
| Clc1ccccc1C1=Nn2c(nnc2-c2ccncc2)SC1 | 6.20 | – | > 79 µM (inactive) | – |
| COc1ccccc1-c1cc(NC=O)c2ncc(-c3ccc(F)cc3)n2c1 | 5.39 | 4.34 | – | – |
| C=CC[C@]12CC=CC(=O)[C@@]1(O)O[C@H](c1ccc(OC)c(OC)c1)[C@H]2C | 5.34 | 5.17 | – | – |
| C=C1C(=O)C2=CC1CCC(=O)C1(C)CCC(OC(C)=O)C(C)(C)C1CC2O (centres undefined) | 5.87 | 4.88 | – | – |
| Cc1ccnc(NC(=O)Cc2ccc(-c3ccccc3)cc2)c1 | 5.04 | 4.32 | – | – |
| O=[N+]([O-])c1cccc(/C=N/Nc2cc(N3CCOCC3)ncn2)c1 | 5.49 | 4.72 | – | – |
| CCCCN(c1ccccc1)c1ncnc(N)c1[N+](=O)[O-] | 5.97 | – | > 79 µM (inactive) | – |
| CC1=C(/C=C/C(C)=C/C=C/C(C)=C\C(=O)O)C(C)(C)CCC1 | 6.19 | – | > 79 µM (inactive) | – |
| O=C(NCCc1ccccc1)c1coc(=O)c(Br)c1 | 5.31 | 4.94 | – | – |
| CC1(C)Cc2c(ccc3ccccc23)C(=O)N1 | 5.49 | – | > 79 µM (inactive) | – |
| CCOC(=O)c1[nH]c(C)c(C(=O)N2CCc3ccccc32)c1C | – | 4.35 | – | > 79 µM (inactive) |
| Cn1nnnc1Sc1ncnc2scc(-c3ccc[nH]3)c12 | 4.83 | 5.16 | – | – |
| Cc1ccc(-c2c(C#N)c(N)n3c(nc4ccccc43)c2C#N)cc1 | 5.54 | 5.27 | – | – |
